The text below walks through data of US10981904B2, “1,3,4-thiadiazole compounds and their use in treating cancer” (Cancer Research Technology Limited, priority 2015, dated 2021).

As a reminder, the IC50 is the point on the concentration scale where inhibition reaches its midpoint.

This experiment relates to NCI-H1703 cells. Description: GLS Cell Proliferation Assay (NCI-H1703 cell proliferation). The conditions noted are these: Homo sapiens, NCI-H1703, 120 h, NCI-H1703 cells, 5 days; read-out: Assay c) Prolif Mean IC50. In kind it is cell-based. An excerpt:
The following assays were used to measure the effects of the compounds described herein: a) GLS Enzyme Potency Assay; b) GLS Cell Potency Assay; c) GLS Cell Proliferation Assay. During the description of the assays, generally: • i. The following abbreviations have been used: CO2=Carbon dioxide; DMEM=Dulbecco's Modified Eagle Medium; DMSO=Dimethyl sulphoxide; EDTA=Ethylenediaminetetraacetic acid; EGTA=Ethylene glycol tetraacetic acid; FCS=Foetal calf serum; h=Hour(s); NBS=Non-binding surface; SDS=Sodium dodecyl sulphate; TRIS=Tris(Hydroxymethyl)aminomethane. • ii. IC50 values were calculated using a smart fitting model in Genedata.
Assay c): GLS Cell Proliferation Assay
The ability of compounds to inhibit cell growth was measured using a 384 well plate NCI-H1703 cell proliferation assay. NCI-H1703 cells were grown in phenol red free RPMI1640, 10% FCS and 2 mM glutamine and seeded at a density of 750 cells per well in 40 μl of growth medium into clear-bottom 384 well assay plates (Corning product code 3712) and incubated for 24 h at 37° C., 5% CO2. […] DMSO concentration was maintained at 0.3% by back filling with DMSO solution. Plates were incubated for 5 days at 37° C., 5% CO2, Sytox Green and Saponin added to final concentration of 2 μM and 0.25% respectively and incubated for 6 h prior to analysis. […] IC50 values were calculated by curve fitting to max inhibition of day zero growth using GeneData software analysis.
Take `COc1cc(OC)cc([C@H](OC)C(=O)Nc2nnc(N[C@@H]3CCN(c4ccc(C)nn4)C3)s2)c1` (single isomer, unassigned) [Example 4(a)]: the IC50 is 2.95 nM.

`COC1CN(c2cccc([C@H](OC)C(=O)Nc3nnc(N[C@@H]4CCN(c5cccnn5)C4)s3)c2)C1` (single isomer, unassigned) [3(b)]: the half-maximal inhibitory concentration (IC50) worked out at 272 nM. The value for `CO[C@H](C(=O)Nc1nnc(N[C@@H]2CCN(c3cccnn3)C2)s1)c1cccc(N2CC(F)C2)c1` (single isomer, unassigned) [Example 1(b)] was 133 nM; that for `COC(C(=O)Nc1nnc(N[C@@H]2CCN(c3ccc(F)nn3)C2)s1)c1cccc(N2CC(F)(F)C2)c1` (stereo partly drawn) [Example 42, 2-[3-(3,3-difluoroazetidin-1-yl)phenyl]-N-[5-[[(3R)-1-(6-fluoropyridazin-3-yl)pyrrolidin-3-yl]amino]-1,3,4-thiadiazol-2-yl]-2-methoxy-acetamide] was 81.5 nM; that for `CO[C@H](C(=O)Nc1nnc(N[C@@H]2CCN(c3cccnn3)C2)s1)c1cccc(N2CC(F)C2)c1` (single isomer, unassigned) [Example 1(a)] was 2.55 nM. With `CO[C@H](C(=O)Nc1nnc(N[C@@H]2CCN(c3cccnn3)C2)s1)c1cccc(C2COC2)c1` (single isomer, unassigned) [18(b)], the half-inhibitory concentration (IC50) is 699 nM. To `COC(C(=O)Nc1nnc(N[C@@H]2CCN(c3cccnn3)C2)s1)c1cccc(C2COC2)c1` (single isomer, unassigned) [Example 18(a)] belongs 13.5 nM; to `COC[C@H](C(=O)Nc1nnc(N[C@@H]2CCN(c3ccc(C)nn3)C2)s1)c1ccccc1` (single isomer, unassigned) [45(b)], 9.22 nM; to `COC1CN(c2cccc([C@H](OC)C(=O)Nc3nnc(N[C@@H]4CCN(c5cccnn5)C4)s3)c2)C1` (single isomer, unassigned) [Example 3(a)], 2.65 nM. The value for `COCC(C(=O)Nc1nnc(N[C@@H]2CCN(c3ccc(C)nn3)C2)s1)c1ccccc1` (single isomer, unassigned) [Example 45(a)] was 2270 nM. The value for `CO[C@H](C(=O)Nc1nnc(N[C@@H]2CCN(c3cccnn3)C2)s1)c1ccc(F)c(N2CC(F)C2)c1` (single isomer, unassigned) [8(b)] was 38.5 nM; that for `COc1cc(OC)cc([C@H](OC)C(=O)Nc2nnc(N[C@@H]3CCN(c4ccc(C)nn4)C3)s2)c1` (single isomer, unassigned) [4(b)] was 27.3 nM.
